Data taken from BindingDB's records for doi:10.1016/S0960-894X(00)80383-2 (1992).
pKi: −log10 of the molar value. Where a name gives a salt, the structure may show the parent alone.

Experiment: Concentration required to inhibit the enzyme cathepsin

pKi: 5.40
Structure (SMILES): CCC[C@H](NC(=O)[C@H](Cc1ccc(OC)cc1)NC(=O)CC(C)C)C(=O)N[C@@H](CC1CCCCC1)C(=O)C(F)(F)CN [(S)-2-[(S)-3-(4-Methoxy-phenyl)-2-(3-methyl-butyrylamino)-propionylamino]-pentanoic acid ((S)-4-amino-1-cyclohexylmethyl-3,3-difluoro-2-oxo-butyl)-amide; hydrochloride]
